According to patent US20040229810A1, “Gastrin compositions and formulations, and methods of use and preparation” (priority 2002, published 2004):
Like-named read-outs stand apart in the source and are kept apart here. Blank lines part the entries; values can stand above or below the compound they belong to. Where a SMILES comes first, the peptide text is derived from it. Where no end group is shown, it is not given here. [ ]: non-standard residue; d: D form. pGlu = O=C1CC[C@@H](C(=O)O)N1

Assays:
[1] = test system: NOD mice with recent onset diabetes; assay: Modified vs unmodified gastrin in combination with GLP-1 in preventing diabetes progression in NOD mice with recent onset diabetes; type: in vivo; settings: in combination with GLP-1 (100 μg/kg/day); gastrin compound 3 μg/kg/day gastrin equivalent i.p. daily for 14 days; compared to GLP-1 with native gastrin (Compound B)
From the text: In this example, the effect of treatment by a combination of GLP-1 and unmodified gastrin and GLP-1 and modified gastrin compounds/conjugates were examined in NOD mice with recent onset diabetes, to determine whether administration of both GLP-1 and gastrin would prevent severe hyperglycemia as well as increase pancreatic insulin content in NOD mice with recent-onset diabetes. The GLP-1 used was GLP-1 which is the biologically active fragment of human/mouse GLP-1 (having residues at positions 7-36 compared to the precursor from which the fragment is processed; obtained from Bachem H6795). […]
Non-obese diabetic (NOD) female mice, ages 12-14 weeks, were monitored for development of onset of diabetes (fasting blood glucose >8.0 to 15 mmol/l), and within 48 hours after onset of symptoms, four groups of mice were each treated as follows: one group was treated with vehicle only; and the other group was administered 100 μg/kg/day of GLP-1, and the remaining groups were treated with combination of GLP-1 (100 μg/kg/day) and gastrin compound (3 μg/kg/day gastrin equivalent), each treatment administered via the intraperitoneal route daily.
Therapy was administered for 14 days. Animals were monitored weekly for fasting blood glucose (FBG) levels. FBG levels were measured at about 12 hours after food had been withdrawn, and 24 hours after the last peptide or vehicle injection. […]

in vivo = settings: male, cynomolgus monkey, iv
[2] = cited from earlier work

Compound: Compound E: gastrin peptide residues 2-17 of SEQ ID NO: 4 with N-terminal Cys residue, no linker (CGPWLEEEEEAYGWLDF; not fully specified (C-terminus); ends and bridges not checked)
reducing blood glucose levels in diabetic animals [1]: more effecting in reducing blood glucose levels

AUC (in vivo; 3 ug/kg): 4.18 ng·h/mL
Cmax (in vivo; 3 ug/kg): 27 ng/mL
Tmax (in vivo; 3 ug/kg): 2 min
half-life (in vivo; 3 ug/kg, t ½): 5 min
AUC (in vivo; 30 ug/kg): 42.1 ng·h/mL
Cmax (in vivo; 30 ug/kg): 268 ng/mL
Tmax (in vivo; 30 ug/kg): 1 min
half-life (in vivo; 30 ug/kg, plasma t1/2): 4 to 5 min
half-life (in vivo; 30 ug/kg, t ½): 5 min
AUC (in vivo; cynomolgus, 10 ug/kg): 15.7 ng·h/mL
Cmax (in vivo; cynomolgus, 10 ug/kg): 127 ng/mL
Tmax (in vivo; cynomolgus, 10 ug/kg): 1 min
half-life (in vivo; cynomolgus, 10 ug/kg, t ½): 4 min
Compound: CC(C)C[C@H](NC(=O)[C@H](Cc1c[nH]c2ccccc12)NC(=O)CNC(=O)[C@H](Cc1ccc(O)cc1)NC(=O)[C@H](C)NC(=O)[C@H](CCC(=O)O)NC(=O)[C@H](CCC(=O)O)NC(=O)[C@H](CCC(=O)O)NC(=O)[C@H](CCC(=O)O)NC(=O)[C@H](CCC(=O)O)NC(=O)[C@H](CC(C)C)NC(=O)[C@H](Cc1c[nH]c2ccccc12)NC(=O)[C@@H]1CCCN1C(=O)CNC(=O)[C@@H]1CCC(=O)N1)C(=O)N[C@@H](CC(=O)O)C(=O)N[C@@H](Cc1ccccc1)C(N)=O [Compound B] ([pGlu]GPWLEEEEEAYGWLDF-NH2)

Compound: Gastrin-17
circulating half-life ([2]; in vivo): 5 to 9 min

Compound: gastrin-34 ([pGlu]LGPQGPPHLVADPSKKQGPWLEEEEEAYGWMDF-NH2; ends and bridges not checked; UniProt P01350 59-92, looked up)
circulating half-life ([2]; background statement): about 35 mins

Compound: Compound Q: human serum albumin conjugate of N-terminal Cys gastrin peptide residues 2-17 of SEQ ID NO: 4 with (GA)5 linker (GPWLEEEEEAYGWLDF; not fully specified (N-terminus, C-terminus); ends and bridges not checked; also: human serum albumin conjugate)
reducing blood glucose levels in diabetic animals [1]: more effecting in reducing blood glucose levels
